According to PubChem BioAssay (NCI):
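Each compound was tested at five concentrations against cells in 96-well plates for 48 hours. TGI: total growth inhibition.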

Key:
Assay in all cases: NCI tumour cell line growth inhibition, 48 h
SW-620 colon = tested on: SW-620 colon
SNB-78 CNS = tested on: SNB-78 CNS
DMS 114 small cell lung = tested on: DMS 114 small cell lung
OVCAR-4 ovarian = tested on: OVCAR-4 ovarian
SN12C renal = tested on: SN12C renal
SR leukemia = tested on: SR leukemia
NCI-H226 lung = tested on: NCI-H226 lung
HS 578T breast = tested on: HS 578T breast
PC-3 prostate = tested on: PC-3 prostate
MDA-N = tested on: MDA-N
T-47D breast = tested on: T-47D breast

## COC(=O)C1=Cc2c(cc(OC)c(OC)c2OC)[C@H](c2ccc(OC)c(OC)c2OC)C1C(=O)OC (stereo not given in full)
SW-620 colon
  TGI: > 100 µM
SNB-78 CNS
  TGI: > 100 µM
DMS 114 small cell lung
  TGI: > 100 µM
OVCAR-4 ovarian
  TGI: > 100 µM
SN12C renal
  TGI: > 100 µM
SR leukemia
  TGI: > 100 µM
NCI-H226 lung
  TGI: > 100 µM

## CCOC(=O)c1cnc2cc3cccccc3n2c1=O
SW-620 colon
  TGI: > 100 µM
SNB-78 CNS
  TGI: > 100 µM
DMS 114 small cell lung
  TGI: > 100 µM
OVCAR-4 ovarian
  TGI: > 100 µM
SN12C renal
  TGI: > 100 µM
SR leukemia
  TGI: > 100 µM
NCI-H226 lung
  TGI: > 100 µM

## O=CN1CCN(C=S)CC1
SW-620 colon
  TGI: > 100 µM
SNB-78 CNS
  TGI: > 100 µM
DMS 114 small cell lung
  TGI: > 100 µM
OVCAR-4 ovarian
  TGI: > 100 µM
SN12C renal
  TGI: > 100 µM
SR leukemia
  TGI: > 100 µM
NCI-H226 lung
  TGI: > 100 µM

## Cc1cc2c(cc1Br)C1(C)CCC(C)C1(C)O2 (stereo not given)
SW-620 colon
  TGI: > 100 µM
SNB-78 CNS
  TGI: > 100 µM
DMS 114 small cell lung
  TGI: 52 µM
OVCAR-4 ovarian
  TGI: > 100 µM
SN12C renal
  TGI: 80.9 µM
SR leukemia
  TGI: 30.5 µM
NCI-H226 lung
  TGI: 50 µM

## C=CCN(CC=C)CC(C(C)=O)C(c1ccccc1)c1c(O)c2ccccc2oc1=O (stereo not given)
SW-620 colon
  TGI: > 100 µM
SNB-78 CNS
  TGI: > 100 µM
DMS 114 small cell lung
  TGI: > 100 µM
OVCAR-4 ovarian
  TGI: > 100 µM
SN12C renal
  TGI: > 100 µM
SR leukemia
  TGI: > 100 µM
NCI-H226 lung
  TGI: > 100 µM

## Cc1c(O)c(=O)ccn1CCO
SW-620 colon
  TGI: > 100 µM
SNB-78 CNS
  TGI: > 100 µM
DMS 114 small cell lung
  TGI: > 100 µM
OVCAR-4 ovarian
  TGI: > 100 µM
SN12C renal
  TGI: > 100 µM
SR leukemia
  TGI: > 100 µM
NCI-H226 lung
  TGI: > 100 µM

## COC(=O)[C@]12CC=C3O[C@@H]4OC5(CCCCC5)O[C@@H]4[C@H]3C1C(=O)C=CC2=O (stereo not given in full)
HS 578T breast
  TGI: 78.4 µM
PC-3 prostate
  TGI: 52.3 µM
SW-620 colon
  TGI: 32.1 µM
MDA-N
  TGI: 33.6 µM
SNB-78 CNS
  TGI: 37.2 µM
DMS 114 small cell lung
  TGI: 33.7 µM
OVCAR-4 ovarian
  TGI: 31.4 µM
SN12C renal
  TGI: 35.1 µM
SR leukemia
  TGI: > 76.8 µM
NCI-H226 lung
  TGI: 34.5 µM
T-47D breast
  TGI: 42.5 µM

## CCOC(=O)[C@H]1Nc2ccc(Cl)cc2[C@H]2c3ccccc3O[C@H]21
SW-620 colon
  TGI: > 100 µM
SNB-78 CNS
  TGI: > 100 µM
DMS 114 small cell lung
  TGI: > 100 µM
OVCAR-4 ovarian
  TGI: > 100 µM
SN12C renal
  TGI: > 100 µM
SR leukemia
  TGI: > 100 µM
NCI-H226 lung
  TGI: > 100 µM
